According to PubChem BioAssay AID248 (DTP/NCI, 2004):
Several values for one entry are separate records, joined by “and”; a condition that tells them apart may be missing. Identical values can stand only once. Toxic doses and inconclusive results are not listed.

System: L1210 leukemia ip in BDF1 mice, survival T/C
Assay: NCI In Vivo Anticancer Drug Screen. Data for tumor model L1210 Leukemia (intraperitoneal) in B6D2F1 (BDF1) mice
Settings: endpoint: mean survival time, higher = longer survival
Outline: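 Antitumor effect is assessed in tumor-bearing animals. Survival in the compound arm is compared with a vehicle-dosed control arm and expressed as their quotient.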

[1] = dose: 7.5 mg/kg/injection, schedule: Q04DX003 (ip), vehicle: saline
[2] = dose: 100.0 mg/kg/injection, schedule: Q04DX003 (ip), vehicle: Klucel (hydroxypropylcellulose) (HPC)
[3] = dose: 200.0 mg/kg/injection, schedule: Q04DX003 (ip), vehicle: Klucel (hydroxypropylcellulose) (HPC)
[4] = dose: 400.0 mg/kg/injection, schedule: Q04DX003 (ip), vehicle: Klucel (hydroxypropylcellulose) (HPC)
[5] = dose: 100.0 mg/kg/injection, schedule: Q04DX003 (ip), vehicle: saline
[6] = dose: 200.0 mg/kg/injection, schedule: Q04DX003 (ip), vehicle: saline
[7] = dose: 400.0 mg/kg/injection, schedule: Q04DX003 (ip), vehicle: saline

Structure (SMILES): COC(=O)CCc1c[nH]c2ccc(N(CCCl)CCCl)cc12
- T/C (dose: 0.06 mg/kg/injection, schedule: Q01DX015 (ip), vehicle: carboxymethylcellulose (CMC)): 104 % of control
- T/C (dose: 0.13 mg/kg/injection, schedule: Q01DX015 (ip), vehicle: carboxymethylcellulose (CMC)): 105 % of control
- T/C (dose: 0.25 mg/kg/injection, schedule: Q01DX015 (ip), vehicle: carboxymethylcellulose (CMC)): 110 % of control
- T/C (dose: 0.5 mg/kg/injection, schedule: Q01DX015 (ip), vehicle: carboxymethylcellulose (CMC)): 120 % of control
- T/C (dose: 1.0 mg/kg/injection, schedule: Q01DX015 (ip), vehicle: carboxymethylcellulose (CMC)): 100 % of control
- T/C (dose: 1.9 mg/kg/injection, schedule: Q01DX009 (ip), vehicle: other): 118 % of control
- T/C (dose: 3.0 mg/kg/injection, schedule: Q01DX015 (ip), vehicle: carboxymethylcellulose (CMC)): 119 % of control
- T/C (dose: 3.8 mg/kg/injection, schedule: Q04DX003 (ip), vehicle: saline): 108 % of control
- T/C [1]: 115 % of control
- T/C (dose: 15.0 mg/kg/injection, schedule: Q01DX009 (ip), vehicle: other): 123 % of control
- T/C (dose: 30.0 mg/kg/injection, schedule: Q04DX003 (ip), vehicle: saline): 177 % of control

Structure (SMILES): CCOC(=O)C(=O)NCc1cnccn1
- T/C (dose: 100.0 mg/kg/injection, schedule: Q01DX009 (ip), vehicle: water): 103 % of control
- T/C (dose: 100.0 mg/kg/injection, schedule: Q04DX003 (ip), vehicle: water): 91 % of control
- T/C (dose: 200.0 mg/kg/injection, schedule: Q01DX009 (ip), vehicle: water): 101 % of control and 107 % of control
- T/C (dose: 200.0 mg/kg/injection, schedule: Q04DX003 (ip), vehicle: water): 94 % of control
- T/C (dose: 400.0 mg/kg/injection, schedule: Q01DX009 (ip), vehicle: water): 94 % of control and 110 % of control
- T/C (dose: 400.0 mg/kg/injection, schedule: Q04DX003 (ip), vehicle: water): 104 % of control

Structure (SMILES): O=N[O-].O=N[O-].[Co].[NH-]CC[N-]CC[N-]CC[NH-]
- T/C (dose: 50.0 mg/kg/injection, schedule: Q01DX001 (ip), vehicle: saline): 104 % of control

Structure (SMILES): O=C1CCC(NC(=O)C(F)(F)F)C(=O)O1 (stereo unspecified)
- T/C [2]: 101 % of control
- T/C [3]: 94 % of control
- T/C [4]: 92 % of control

Structure (SMILES): O=C(O)COc1ccc(Cl)cc1CCl
- T/C [2]: 100 % of control
- T/C [3]: 98 % of control
- T/C [4]: 102 % of control

Structure (SMILES): C(=C(\C[P+](c1ccccc1)(c1ccccc1)c1ccccc1)c1ccccc1)/c1ccccc1
- T/C (dose: 5.0 mg/kg/injection, schedule: Q01DX009 (ip), vehicle: saline with Tween-80): 97 % of control
- T/C (dose: 5.0 mg/kg/injection, schedule: Q04DX003 (ip), vehicle: saline with Tween-80): 93 % of control
- T/C (dose: 20.0 mg/kg/injection, schedule: Q04DX003 (ip), vehicle: saline with Tween-80): 86 % of control

Structure (SMILES): CCCCCCCC(=O)N(C)OC
- T/C (dose: 100.0 mg/kg/injection, schedule: Q01DX009 (ip), vehicle: Klucel (hydroxypropylcellulose) (HPC)): 97 % of control
- T/C [2]: 89 % of control
- T/C [3]: 94 % of control
- T/C (dose: 400.0 mg/kg/injection, schedule: Q01DX009 (ip), vehicle: Klucel (hydroxypropylcellulose) (HPC)): 100 % of control
- T/C [4]: 92 % of control

Structure (SMILES): O=C1/C(=C\c2ccc([N+](=O)[O-])cc2)N2CCC1CC2
- T/C (dose: 100.0 mg/kg/injection, schedule: Q04DX002 (ip), vehicle: Klucel (hydroxypropylcellulose) (HPC)): 102 % of control
- T/C (dose: 200.0 mg/kg/injection, schedule: Q04DX002 (ip), vehicle: Klucel (hydroxypropylcellulose) (HPC)): 94 % of control
- T/C (dose: 400.0 mg/kg/injection, schedule: Q04DX002 (ip), vehicle: Klucel (hydroxypropylcellulose) (HPC)): 105 % of control

Structure (SMILES): O=NN(CCCl)C(=O)Nc1c[nH]c2ccccc12
- T/C (dose: 118.0 mg/kg/injection, schedule: Q01DX009 (ip), vehicle: carboxymethylcellulose (CMC)): 116 % of control
- T/C (dose: 177.0 mg/kg/injection, schedule: Q01DX009 (ip), vehicle: carboxymethylcellulose (CMC)): 116 % of control
- T/C (dose: 266.0 mg/kg/injection, schedule: Q01DX009 (ip), vehicle: carboxymethylcellulose (CMC)): 123 % of control
- T/C (dose: 400.0 mg/kg/injection, schedule: Q01DX009 (ip), vehicle: carboxymethylcellulose (CMC)): 124 % of control
- T/C (dose: 600.0 mg/kg/injection, schedule: Q01DX009 (ip), vehicle: carboxymethylcellulose (CMC)): 156 % of control

Structure (SMILES): OC(Cc1cncc(CC(O)(C(F)(F)F)C(F)(F)F)n1)(C(F)(F)F)C(F)(F)F
- T/C (dose: 100.0 mg/kg/injection, schedule: Q01DX009 (ip), vehicle: saline): 95 % of control
- T/C [5]: 96 % of control
- T/C (dose: 200.0 mg/kg/injection, schedule: Q01DX009 (ip), vehicle: saline): 105 % of control
- T/C [6]: 92 % of control
- T/C (dose: 400.0 mg/kg/injection, schedule: Q01DX009 (ip), vehicle: saline): 98 % of control
- T/C [7]: 97 % of control

Structure (SMILES): OCC1C=CCC=C1
- T/C [5]: 100 % of control
- T/C [6]: 98 % of control
- T/C [7]: 93 % of control

Structure (SMILES): CCCCCCCCCCCCCCCC[N+](C)(C)C
- T/C (dose: 0.93 mg/kg/injection, schedule: Q04DX003 (ip), vehicle: saline): 97 % of control
- T/C (dose: 1.09 mg/kg/injection, schedule: Q01DX009 (ip), vehicle: saline): 100 % of control
- T/C (dose: 1.87 mg/kg/injection, schedule: Q01DX009 (ip), vehicle: saline): 92 % of control
- T/C (dose: 1.87 mg/kg/injection, schedule: Q04DX003 (ip), vehicle: saline): 106 % of control
- T/C (dose: 2.0 mg/kg/injection, schedule: Q01DX015 (ip), vehicle: saline): 94 % of control
- T/C (dose: 2.18 mg/kg/injection, schedule: Q01DX009 (ip), vehicle: saline): 100 % of control
- T/C (dose: 3.75 mg/kg/injection, schedule: Q01DX009 (ip), vehicle: saline): 92 % of control
- T/C (dose: 3.75 mg/kg/injection, schedule: Q04DX003 (ip), vehicle: saline): 95 % of control
- T/C (dose: 4.0 mg/kg/injection, schedule: Q01DX015 (ip), vehicle: saline): 95 % of control
- T/C (dose: 4.37 mg/kg/injection, schedule: Q01DX009 (ip), vehicle: saline): 91 % of control
- T/C (dose: 6.25 mg/kg/injection, schedule: Q04DX003 (ip), vehicle: saline): 101 % of control
- T/C (dose: 7.5 mg/kg/injection, schedule: Q01DX009 (ip), vehicle: saline): 92 % of control
- T/C [1]: 90 % of control
- T/C (dose: 11.0 mg/kg/injection, schedule: Q01DX009 (ip), vehicle: saline): 113 % of control
- T/C (dose: 12.5 mg/kg/injection, schedule: Q01DX001 (ip), vehicle: saline): 95 % of control
- T/C (dose: 12.5 mg/kg/injection, schedule: Q04DX003 (ip), vehicle: saline): 105 % of control
- T/C (dose: 25.0 mg/kg/injection, schedule: Q01DX001 (ip), vehicle: saline): 98 % of control
- T/C (dose: 25.0 mg/kg/injection, schedule: Q04DX003 (ip), vehicle: carboxymethylcellulose (CMC)): 105 % of control
- T/C (dose: 25.0 mg/kg/injection, schedule: Q04DX003 (ip), vehicle: saline): 90 % of control
- T/C (dose: 35.0 mg/kg/injection, schedule: Q04DX003 (ip), vehicle: saline): 88 % of control
- T/C (dose: 50.0 mg/kg/injection, schedule: Q04DX003 (ip), vehicle: carboxymethylcellulose (CMC)): 100 % of control
- T/C [2]: 103 % of control

Structure (SMILES): NC(N)=N/N=C(/C=C/c1ccccc1)c1ccc(Cl)cc1
- T/C (dose: 15.0 mg/kg/injection, schedule: Q01DX Z (ip), vehicle: carboxymethylcellulose (CMC)): 92 % of control
- T/C (dose: 30.0 mg/kg/injection, schedule: Q01DX Z (ip), vehicle: carboxymethylcellulose (CMC)): 92 % of control
- T/C (dose: 60.0 mg/kg/injection, schedule: Q01DX Z (ip), vehicle: carboxymethylcellulose (CMC)): 95 % of control and 91 % of control
- T/C (dose: 120.0 mg/kg/injection, schedule: Q01DX Z (ip), vehicle: carboxymethylcellulose (CMC)): 101 % of control and 88 % of control
- T/C (dose: 120.0 mg/kg/injection, schedule: Q01DX Z (oral), vehicle: carboxymethylcellulose (CMC)): 96 % of control
- T/C (dose: 240.0 mg/kg/injection, schedule: Q01DX Z (ip), vehicle: carboxymethylcellulose (CMC)): 90 % of control
- T/C (dose: 240.0 mg/kg/injection, schedule: Q01DX Z (oral), vehicle: carboxymethylcellulose (CMC)): 100 % of control
- T/C (dose: 480.0 mg/kg/injection, schedule: Q01DX Z (oral), vehicle: carboxymethylcellulose (CMC)): 105 % of control
- T/C (dose: 960.0 mg/kg/injection, schedule: Q01DX Z (oral), vehicle: carboxymethylcellulose (CMC)): 102 % of control

Structure (SMILES): CNc1cccc(C(=O)O)c1
- T/C (dose: 100.0 mg/kg/injection, schedule: Q01DX001 (ip), vehicle: Klucel (hydroxypropylcellulose) (HPC)): 91 % of control
- T/C [2]: 113 % of control
- T/C (dose: 200.0 mg/kg/injection, schedule: Q01DX001 (ip), vehicle: Klucel (hydroxypropylcellulose) (HPC)): 102 % of control
- T/C [3]: 107 % of control
- T/C (dose: 400.0 mg/kg/injection, schedule: Q01DX001 (ip), vehicle: Klucel (hydroxypropylcellulose) (HPC)): 98 % of control
- T/C [4]: 97 % of control
